This is an account of results in ChEMBL document CHEMBL1151538, “Rearrangement of unsymmetrical azetidinone disulfides to 2-(heterocyclylthiomethyl)penams, a synthetic approach to new -lactamase inhibitors” (Bioorg Med Chem Lett, 1993).

The target of one assay is T1, Beta-lactamase BRO-1 (Moraxella catarrhalis, UniProt Q59514).
T1 sequence (Q59514 whole entry): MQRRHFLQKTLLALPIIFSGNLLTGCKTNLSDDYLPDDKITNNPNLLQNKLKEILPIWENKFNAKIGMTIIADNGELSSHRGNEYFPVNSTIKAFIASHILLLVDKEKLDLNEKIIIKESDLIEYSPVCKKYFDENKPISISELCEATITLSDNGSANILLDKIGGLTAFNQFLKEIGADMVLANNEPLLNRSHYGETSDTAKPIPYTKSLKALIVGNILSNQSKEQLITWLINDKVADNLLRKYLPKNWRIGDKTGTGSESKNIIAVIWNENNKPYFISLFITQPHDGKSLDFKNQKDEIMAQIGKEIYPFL
Put plainly: Inhibitory activity against Branhamella catarrhalis 89001 Class-III BRO-1 type beta-lactamase enzyme. More on the design: species or system b.catarr.

Another assay deals with T2, Beta-lactamase SHV-1 (Escherichia coli, UniProt P0AD63).
T2 sequence (P0AD63 whole entry): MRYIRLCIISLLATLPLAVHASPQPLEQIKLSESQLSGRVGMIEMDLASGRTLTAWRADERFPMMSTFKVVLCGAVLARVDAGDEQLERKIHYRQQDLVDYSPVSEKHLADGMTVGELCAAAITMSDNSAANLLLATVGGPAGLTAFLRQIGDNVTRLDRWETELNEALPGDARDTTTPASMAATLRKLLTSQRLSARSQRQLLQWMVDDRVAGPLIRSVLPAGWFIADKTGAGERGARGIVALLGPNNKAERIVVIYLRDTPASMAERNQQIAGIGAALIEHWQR
Description: Inhibitory activity against Escherichia coli HA208 Class-III SHV-1 type beta-lactamase enzyme.

A further assay addresses Beta-lactamase OXA-1 (Escherichia coli, UniProt P13661). Description: Inhibitory activity against Escherichia coli HA209 Class-V OXA-1 type beta-lactamase enzyme.
In a further assay the target is Beta-lactamase TEM (Escherichia coli, UniProt P62593). Description: Inhibitory activity against Escherichia coli HA58R Class-III TEM-1 type beta-lactamase enzyme.
For assay [1], the target named is Beta-lactamase (Staphylococcus aureus, UniProt P00807). Description: Inhibitory activity against Staphylococcus aureus CJ8 beta-lactamase enzyme.
The target of assay [2] is Beta-lactamase (Enterobacter cloacae, UniProt P05364). Description: Inhibitory activity against Enterobacter cloacae HC8 Class-I beta-lactamase enzyme type P99.
Assay [3] addresses T3, Beta-lactamase (Klebsiella oxytoca, UniProt Q8RT60).
T3 sequence (Q8RT60 whole entry): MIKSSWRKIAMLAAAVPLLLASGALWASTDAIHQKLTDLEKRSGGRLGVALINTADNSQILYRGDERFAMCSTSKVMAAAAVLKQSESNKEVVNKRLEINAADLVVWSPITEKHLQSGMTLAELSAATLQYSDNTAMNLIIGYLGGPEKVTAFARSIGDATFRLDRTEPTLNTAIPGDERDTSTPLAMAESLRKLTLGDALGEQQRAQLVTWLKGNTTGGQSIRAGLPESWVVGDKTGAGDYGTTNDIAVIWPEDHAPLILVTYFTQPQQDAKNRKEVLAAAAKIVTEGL
Description: Inhibitory activity against Klebsiella oxytoca HC7 Class-IV K1 type beta-lactamase enzyme.

The target in assay [4] is Beta-lactamase (Citrobacter freundii, UniProt P05193). Put plainly: Inhibitory activity against Citrobacter freundii 87470 Class-I beta-lactamase enzyme.
Sequence of Beta-lactamase (Citrobacter freundii, UniProt P05193) (P05193 whole entry): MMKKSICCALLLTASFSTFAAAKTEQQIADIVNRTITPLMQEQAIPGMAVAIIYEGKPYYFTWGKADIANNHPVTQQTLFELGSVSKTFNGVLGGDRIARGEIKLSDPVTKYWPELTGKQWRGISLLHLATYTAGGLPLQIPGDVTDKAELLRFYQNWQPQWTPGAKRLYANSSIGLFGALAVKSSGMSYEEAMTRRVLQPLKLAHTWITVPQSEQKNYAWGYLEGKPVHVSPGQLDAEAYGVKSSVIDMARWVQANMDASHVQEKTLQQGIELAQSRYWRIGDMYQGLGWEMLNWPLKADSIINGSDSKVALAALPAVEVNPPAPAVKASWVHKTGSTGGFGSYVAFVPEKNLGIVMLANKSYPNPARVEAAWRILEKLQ

Sequence of Beta-lactamase TEM (P62593 whole entry): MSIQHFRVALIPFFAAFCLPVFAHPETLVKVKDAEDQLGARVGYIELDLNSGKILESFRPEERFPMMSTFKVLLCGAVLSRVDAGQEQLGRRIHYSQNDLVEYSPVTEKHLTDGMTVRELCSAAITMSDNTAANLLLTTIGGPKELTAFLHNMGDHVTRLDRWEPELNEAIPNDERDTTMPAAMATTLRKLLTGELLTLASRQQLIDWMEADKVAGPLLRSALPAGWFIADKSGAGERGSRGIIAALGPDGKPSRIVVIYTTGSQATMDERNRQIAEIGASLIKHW
Sequence of Beta-lactamase OXA-1 (P13661 whole entry): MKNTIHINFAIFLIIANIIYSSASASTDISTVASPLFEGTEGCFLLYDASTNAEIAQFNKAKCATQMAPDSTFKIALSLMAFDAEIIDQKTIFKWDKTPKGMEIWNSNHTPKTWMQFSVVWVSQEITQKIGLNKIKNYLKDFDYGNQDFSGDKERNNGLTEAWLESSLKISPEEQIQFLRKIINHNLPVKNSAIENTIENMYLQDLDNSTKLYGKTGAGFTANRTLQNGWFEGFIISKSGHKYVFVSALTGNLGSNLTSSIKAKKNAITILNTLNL
Sequence of Beta-lactamase (Enterobacter cloacae, UniProt P05364) (P05364 whole entry): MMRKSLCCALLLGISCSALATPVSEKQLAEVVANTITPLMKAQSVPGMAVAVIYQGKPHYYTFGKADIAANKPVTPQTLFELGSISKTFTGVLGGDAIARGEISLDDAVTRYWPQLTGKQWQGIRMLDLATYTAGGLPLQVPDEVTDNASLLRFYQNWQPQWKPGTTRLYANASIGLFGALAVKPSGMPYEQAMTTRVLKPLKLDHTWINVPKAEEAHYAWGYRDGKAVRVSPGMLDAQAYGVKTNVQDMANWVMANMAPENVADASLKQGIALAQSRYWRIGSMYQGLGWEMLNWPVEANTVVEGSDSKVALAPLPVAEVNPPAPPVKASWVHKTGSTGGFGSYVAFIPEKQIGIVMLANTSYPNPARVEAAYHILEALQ
Sequence of Beta-lactamase (Staphylococcus aureus, UniProt P00807) (P00807 whole entry): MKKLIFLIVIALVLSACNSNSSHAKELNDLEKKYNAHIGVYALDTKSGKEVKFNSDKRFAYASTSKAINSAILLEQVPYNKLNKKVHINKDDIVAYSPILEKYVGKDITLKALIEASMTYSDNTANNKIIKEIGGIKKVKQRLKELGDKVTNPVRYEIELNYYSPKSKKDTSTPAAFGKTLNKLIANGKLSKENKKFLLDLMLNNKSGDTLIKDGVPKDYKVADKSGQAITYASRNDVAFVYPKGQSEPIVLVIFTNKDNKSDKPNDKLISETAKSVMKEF

Take `Cn1ccnc1SC[C@@]1(C)[C@H](C(=O)O)N2C(=O)C[C@H]2S1(=O)=O`: the IC50 (as a rule, the concentration at which inhibition is half-maximal) at Beta-lactamase BRO-1 is 2.9 nM; on Beta-lactamase SHV-1 it was 926 nM; at Beta-lactamase OXA-1, 463 nM.

Consider `Cn1nnnc1SC[C@@]1(C)[C@H](C(=O)O)N2C(=O)C[C@H]2S1(=O)=O`, for which the IC50 was 8.64 nM at Beta-lactamase BRO-1, 72 nM on Beta-lactamase SHV-1, 92.1 nM against Beta-lactamase OXA-1 and 17.3 nM at Beta-lactamase TEM.

`C[C@@]1(CSc2nc3ccccc3s2)S[C@@H]2[C@H](Br)C(=O)N2[C@H]1C(=O)O`: the 50% inhibitory concentration (IC50) was 56.1 nM against Beta-lactamase BRO-1, 141 nM on Beta-lactamase SHV-1, 1410 nM against Beta-lactamase OXA-1 and 35.9 nM on Beta-lactamase TEM.

Regarding `C[C@]1(CSc2nc3ccccc3o2)[C@H](C(=O)O)N2C(=O)C[C@H]2S1(=O)=O`, the figures for the half-inhibitory concentration (IC50) against Beta-lactamase OXA-1 and against Beta-lactamase TEM were 83.7 nM and 10.5 nM, respectively.

Regarding `Cn1nnnc1SC[C@]1(C)S[C@@H]2[C@H](Br)C(=O)N2[C@H]1C(=O)O`, the IC50 is 50.7 nM on Beta-lactamase BRO-1, 1010 nM at Beta-lactamase SHV-1, 8120 nM at Beta-lactamase OXA-1 and 101 nM on Beta-lactamase TEM.

Regarding `Cn1cnnc1SC[C@@]1(C)[C@H](C(=O)O)N2C(=O)C[C@H]2S1(=O)=O`, the IC50 at Beta-lactamase BRO-1 is 2.89 nM; at Beta-lactamase SHV-1, 577 nM; on Beta-lactamase TEM it was 72.2 nM.

As for `C[C@@]1(CSc2nc3ccccc3o2)S[C@@H]2[C@H](Br)C(=O)N2[C@H]1C(=O)O`, the IC50 at Beta-lactamase [1] was 116 nM; at Beta-lactamase [2], 18400 nM; against Beta-lactamase [3], 1160 nM; on Beta-lactamase SHV-1, 147 nM; against Beta-lactamase TEM, 30.3 nM; against Beta-lactamase [4], 14700 nM.

For the compound `C[C@]1(CSC2=NCCS2)[C@H](C(=O)O)N2C(=O)C[C@H]2S1(=O)=O`, the IC50 against Beta-lactamase BRO-1 is 2.85 nM; against Beta-lactamase SHV-1, 371 nM; against Beta-lactamase OXA-1 it was 114 nM; against Beta-lactamase TEM, 22.8 nM.

As to `C[C@]1(CSc2nc3ccccc3[nH]2)[C@H](C(=O)O)N2C(=O)C[C@H]2S1(=O)=O`, the results for the 50% inhibitory concentration (IC50) at Beta-lactamase SHV-1 and against Beta-lactamase TEM were 655 nM and 65.5 nM, respectively.

Turning to `Cn1ccnc1SC[C@]1(C)S[C@@H]2[C@H](Br)C(=O)N2[C@H]1C(=O)O`, the half-maximal inhibitory concentration (IC50) is 63.7 nM on Beta-lactamase BRO-1, 51 nM at Beta-lactamase SHV-1, 10200 nM against Beta-lactamase OXA-1 and 15.3 nM at Beta-lactamase TEM.

At Beta-lactamase BRO-1, `O=C(O)[C@H]1/C(=C/CO)O[C@@H]2CC(=O)N21` [CLAVULANIC ACID] had a concentration for half-maximal inhibition (IC50) of 30.1 nM.

Take `CC1(C)[C@H](C(=O)O)N2C(=O)C[C@H]2S1(=O)=O` [SULBACTAM]: the IC50 was 1710 nM on Beta-lactamase SHV-1 and 1370 nM against Beta-lactamase OXA-1.

As for `C[C@]1(Cn2ccnn2)[C@H](C(=O)O)N2C(=O)C[C@H]2S1(=O)=O` [TAZOBACTAM], the IC50 at Beta-lactamase BRO-1 is 33.3 nM; at Beta-lactamase SHV-1 it was 133 nM.
